Read-outs that look alike come from different tables or passages of the source.
Columns and labels:
[1] = Brain/cerebrospinal fluid migration test; assay type: in vivo, rat; settings: SD male rats, 2 hours after oral administration (10 mg/kg); for concentration at 2 h: rat
Source text: A test compound was orally or intravenously administered to SD male rats (7 to 10 weeks-age, 200 to 400 g), and while anesthetized with ether for a predetermined period of time, the whole blood was collected from the abdominal aorta of the rats, using a heparin-processed syringe. Next, the brain skin was cut opened and a 30 G needle for dental use was pierced between the cervical vertebrae and inserted into the subarachnoid cavity. Through the tube connected with the dental 30 G needle, from 50 to 100 μl of the cerebrospinal fluid was collected into a 1-ml syringe, and then the brain was taken out. The blood sample was centrifuged (4° C., 6000 rpm, 10 minutes), and the resulting plasma was stirred with ethanol (including an internal standard substance) added thereto in an amount of 3 times the plasma. 2 ml of water was added to the brain sample and homogenized, and a part of the resulting mixture was stirred with ethanol (including an internal standard substance) added thereto in an amount of 3 times the mixture. These samples were kept at −20° C. for 20 minutes, and then centrifuged (4° C., 12,000 g, 10 minutes), and the resulting supernatant was analyzed through LC/MS/MS. According to a relative calibration curve method, the concentration of the test compound in the plasma, the brain and the cerebrospinal fluid was quantified.

histamine-3 receptor [2] = biological target: T1, histamine-3 receptor (Homo sapiens, UniProt Q9Y5N1); assay: Histamine analogue-binding inhibition test ([35S]GTPγS binding in presence of R-methylhistamine, SPA); assay type: biochemical; settings: 20 nM R-methylhistamine, 25° C., 3 hours; read-out: IC50 (nM) to specific [35S]GTPγS binding
T1 construct: expressed in transfected cells; host or cells: HEK293 and CHO-K1 (membrane specimen)
T1 sequence (Q9Y5N1 whole entry): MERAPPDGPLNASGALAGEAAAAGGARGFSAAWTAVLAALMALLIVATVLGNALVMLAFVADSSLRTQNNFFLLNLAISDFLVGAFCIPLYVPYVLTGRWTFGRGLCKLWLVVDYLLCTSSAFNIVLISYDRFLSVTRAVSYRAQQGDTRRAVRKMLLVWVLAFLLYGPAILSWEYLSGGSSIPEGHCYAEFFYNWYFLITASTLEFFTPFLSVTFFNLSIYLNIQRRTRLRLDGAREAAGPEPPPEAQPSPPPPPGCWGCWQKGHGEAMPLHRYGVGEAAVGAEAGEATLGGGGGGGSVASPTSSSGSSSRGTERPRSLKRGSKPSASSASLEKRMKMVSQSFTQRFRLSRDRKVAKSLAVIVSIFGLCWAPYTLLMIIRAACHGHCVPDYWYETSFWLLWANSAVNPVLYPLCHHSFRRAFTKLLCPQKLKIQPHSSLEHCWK
Source text: (§1) A cDNA sequence coding for a human histamine-3 receptor [see International Patent Application WO00/39164) was cloned with expression vectors pCR2.1, pEF1x (by Invitrogen) and pCI-neo (by Promega). The resulting expression vector was transfected into host cells, HEK293 and CHO-K1 (American Type Culture Collection), according to a cationic lipid process [see Proceedings of the National Academy of Sciences of the United States of America, Vol., 84, p. 7413 (1987)] to obtain histamine-3 receptor expression cells.
A membrane specimen prepared from the cells having expressed a histamine-3 receptor was incubated in an assay buffer (50 mM Tris buffer, 100 mM NaCl, 5 mM MgCl2, pH 7.4) along with a test compound, 20 nM R-methylhistamine (histamine analogue, by Sigma), 10 μM GDP (guanine-nucleotide diphosphate, by Sigma), […] [^35S] GTPγS (guanine-nucleotide triphosphate analogue, by Amersham) and SPA resin (wheatgerm agglutinin SPA beads, by Amersham) therein on a 96-well optiplate (by Packard) at 25° C. for 3 hours and then centrifuged at 3,000 rpm, and its activity was counted with Topcount (by Packard). The non-specific binding was determined in the presence of 10 μM GTPγS (by Sigma), and the 50% inhibitory concentration (IC50) of the test compound to specific N[^35S] GTPγS binding was calculated [see British Journal of Pharmacology, Vol. 135, p. 383 (2002)].

histamine-3 receptor [3] = biological target: T1, histamine-3 receptor; assay: Histamine analogue-binding inhibition test ([3H]N-α-methylhistamine binding to membrane specimen); settings: membrane of histamine-3 receptor expressing cells, 25° C., 2 hours; read-out: 50% inhibitory concentration (IC50) to specific N-α-methylhistamine binding
Source text: as §1
A membrane specimen prepared from the cells having expressed a histamine-3 receptor was incubated in an assay buffer (50 mM Tris buffer, pH 7.4) along with a test compound and 20,000 cpm of [^3H]-α-methylhistamine (by NEN) therein at 25° C. for 2 hours, and then filtered through a glass filter GF/C. This was washed with 50 mM Tris buffer (ph 7.4), and the radioactivity on the glass filter was measured. The non-specific binding was determined in the presence of 10 μM thioperamide (by SIGAM), and the 50% inhibitory concentration (IC50) of the test compound to specific N-α-methylhistamine binding was calculated [see Molecular Pharmacology, Vol. 55, p. 1101 (1999)].

[4] = Test for internal kinetics; assay type: in vivo, rat; settings: SD male rats, oral or intravenous administration
Procedure: A test compound was orally or intravenously administered to SD male rats (7 to 10 weeks-age, 200 to 400 g) kept away from eating and drinking overnight, and using a heparinization capillary within a predetermined period of time, about 100 μl of the blood was collected from them via their tail vein. The blood was centrifuged (4° C., 6000 rpm, 10 minutes) to collect its plasma. Ethanol (including an internal standard substance) was added to the plasma in an amount of 3 times that of the plasma, and stirred, and left statically at −20° C. for 20 minutes, and then this was centrifuged (4° C., 10,000 rpm, 10 minutes). The supernatant was analyzed through LC/MS/MS, and the plasma concentration of the compound was quantified according to a relative calibration curve method.

| SMILES | IC50 (histamine-3 receptor [2]) [nM] | also measured |
| --- | --- | --- |
| O=C(c1ccc(-c2cnc(OC3CCN(C4CCCC4)CC3)nc2)cc1)N1CCCC1 [Example 11, 2-(1-cyclopentylpiperidin-4-yloxy)-5-{4-(pyrrolidin-1-ylcarbonyl)phenyl}pyrimidine] | 1.2 | – |
| CS(=O)(=O)c1ccc(-c2cnc(OC3CCN(C4CCCC4)CC3)nc2)cc1 [Example 37, 2-(1-cyclopentylpiperidin-4-yloxy)-5-{4-(methylsulfonyl)phenyl}pyrimidine] | 1.3 | – |
| Cn1cc(-c2ccc(OC3CCN(C4CCC4)CC3)nc2)ccc1=O [Example 65, 2-(1-cyclobutylpiperidin-4-yloxy)-5-{1-methyl-1H-pyridin-2-on-5-yl}pyridine] | 0.45 | – |

Further molecules by falling IC50 (histamine-3 receptor [2]), results first:

| IC50 (histamine-3 receptor [2]) [nM] | SMILES | also measured |
| --- | --- | --- |
| 1.9 | N#Cc1ccc(-c2cnc(OC3CCN(C4CCCC4)CC3)nc2)cc1 [Example 1, 2-(1-cyclopentylpiperidin-4-yloxy)-5-(4-cyanophenyl)pyrimidine] | brain concentration [1]: 6.18 nmol/g; concentration at 2 h ([1]; cerebrospinal fluid, read-out: cerebrospinal fluid concentration): 128 nM; concentration at 2 h ([1]; plasma, read-out: plasma concentration): 540 nM; IC50 (histamine-3 receptor [3]): 15 nM; half-value period in blood [4]: 5.3 h; bioavailability ([4]; rat, plasma): 53% |
| 1.4 | FC(F)(F)c1ccc(-c2cnc(OC3CCN(C4CCCC4)CC3)nc2)cc1 [Example 23, 2-(1-cyclopentylpiperidin-4-yloxy)-5-(4-trifluoromethylphenyl)pyrimidine] | – |
| 1.4 | CC(C)N1CCC(Oc2ccc(-c3ccc(=O)n(C)c3)cn2)CC1 [Example 68, 2-(1-isopropylpiperidin-4-yloxy)-5-{1-methyl-1H-pyridin-2-on-5-yl}pyridine] | – |
| 1.2 | c1cn2cnnc2cc1-c1cnc(OC2CCN(C3CCCC3)CC2)nc1 [Example 60, 2-(1-cyclopentylpiperidin-4-yloxy)-5-(1,2,4-triazolo[4,3,a]pyridin-7-yl)pyrimidine] | – |

— patent publication US8044070B2, “Heteroaryloxy nitrogenous saturated heterocyclic derivative” (MSD K.K., priority 2003, dated 2011)
